In US9913843B2, “Protein kinase C inhibitors and uses thereof” (Rigel Pharmaceuticals, Inc., priority 2012, dated 2018):
pIC50: −log10 of the molar value. Read-outs that look alike come from different tables or passages of the source.

System: PKC mediated IL-2 production in human primary T cells
Assay: IL-2 ELISA, human primary T cell, anti CD3+CD28+ (whole cell functional assay for PKC mediated IL-2 production)
Type: cell-based
Method: Human primary T cells were prepared as follows. Fresh PBMC's from All Cells (Cat # PB002) were re-suspended in RPMI (RPMI-1640 with L-Glutamine; Mediatech, Inc., Herndon Va., cat. #10-040-CM) with 10% FBS and seeded into flasks and incubated at 37° C. for 2 hours to allow the monocytes to adhere. The non-adherent cells were then centrifuged and re-suspended in RPMI medium containing 40 U/ml IL2 and seeded into a flask pre-coated with 1 μg/ml aCD3 and 5 ug/ml aCD28 (Anti-Human CD3, BD Pharmingen Catalog #555336, Anti-Human CD28, Beckman Coulter Catalog #IM1376). The cells were stimulated for 3-4 days, then transferred to a fresh flask and maintained in RPMI (RPMI-1640 with L-Glutamine; Mediatech, Inc., Herndon Va., cat. #10-040-CM) with 10% FBS and 40 U/ml IL-2.
Human primary T cells (100,000 cells per well) were pre-incubated with or without test compound in RPMI-1640 with L-Glutamine and 10% FBS for 1 hour at 37° C. Cells were then stimulated by transferring them to round-bottom 96-well plates pre-coated with 1 μg/ml aCD3 and 5 μg/ml aCD28. For counter assay, cells were instead stimulated by adding 8× stock solutions of PMA and ionomycin in RPMI-1640 with L-Glutamine and 10% FBS (for final concentrations of 0.5 ng/ml PMA and 0.1 μM ionomycin, both from Calbiochem). Cells were incubated at 37° C. for 24 hours before 100 μL supernatants were harvested for quantification of IL-2 by ELISA using Human IL-2 Duoset ELISA Kit from R and D Systems, Cat. # DY202E.
Compounds 1-156 were tested in a whole cell functional assay for PKC mediated IL-2 production as follows. Human primary T cell isolation and culture: Human primary T cells were prepared as follows. Whole blood was obtained from a healthy volunteer, mixed 1:1 with PBS, layered on to Ficoll Hypaque (Amersham Pharmacia Biotech, Piscataway, N.J., Catalog #17-1440-03) in 2:1 blood/PBS:ficoll ratio and centrifuged for 30 minutes at 4° C. at 1750 rpm. The cells at the serum: ficoll interface were recovered and washed twice with 5 volumes of PBS. These freshly isolated human peripheral blood mononuclear cells were cultured in Yssel's medium containing 40 U/ml IL2 in a flask pre-coated with 1 μg/ml aCD3 and 5 μg/ml aCD28 (Anti-Human CD3, BD Pharmingen Catalog #555336, Anti-Human CD28, Beckman Coulter Catalog #IM1376). The cells were stimulated for 3-4 days, then transferred to a fresh flask and maintained in RPMI (RPMI-1640 with L-Glutamine; Mediatech, Inc., Herndon Va., cat. #10-040-CM) with 10% FBS and 40 U/ml IL-2. The primary T-cells were then washed twice with PBS to remove the IL-2.
Primary T cell stimulation and IL2 ELISA: Human primary T cells (100,000 cells per well) were pre-incubated with or without test compound in Yssel's medium for 1 hour at 37° C. Cells were then stimulated by transferring them to round-bottom 96-well plates pre-coated with 1 μg/ml aCD3 and 5 μg/ml αCD28. For counter assay, cells were instead stimulated by adding 8× stock solutions of PMA and ionomycin in Yssels (for final concentrations of 0.5 ng/ml PMA and 0.1 uM ionomycin, both from Calbiochem). Cells were incubated at 37° C. for 24 hours before 100 μL supernatants were harvested for quantification of IL-2 by ELISA using Human IL-2 Duoset ELISA Kit from R and D Systems, Cat. # DY202E.

[1] = 24 h, human primary T cells stimulated with anti-CD3 + anti-CD28, IL-2 by ELISA, read-out: IC50 for blocking IL-2 production
[2] = human primary T cells stimulated with anti-CD3 + anti-CD28, 24 h, IL-2 by ELISA, 8 pt, read-out: IL2 ELISA, Human primary T cell, anti-CD3 + CD28, 8 pt (IC50)

Structure (SMILES) | pIC50 [1] | pIC50 [2]
Cn1nnn(-c2cc(Nc3ncc(Cl)c(NC[C@@H]4CCCN5CCCC[C@H]45)n3)c(F)cc2O)c1=O [Compound 146, 1-(5-((5-chloro-4-((((1S,9aR)-octahydro-2H-quinolizin-1-yl)methyl)amino)pyrimidin-2-yl)amino)-4-fluoro-2-hydroxyphenyl)-4-methyl-1,4-dihydro-5H-tetrazol-5-one] | > 4.52 | 5.70
COc1cnc(Nc2ccc(F)c(-n3nnnc3C)c2)nc1NC[C@@H]1CCCN2CCCC[C@H]12 [Compound 75, N2-(4-fluoro-3-(5-methyl-1H-tetrazol-1-yl)phenyl)-N4-(((1S,9aR)-octahydro-1H-quinolizin-1-yl)methyl)-5-methoxypyrimidine-2,4-diamine] | > 4.52 | 5.54
COc1cc(Nc2ncc(C)c(NC[C@@H]3CCCN4CCCC[C@H]34)n2)cc(OC)c1 [Compound 70, N4-(((1S,9aR)-octahydro-1H-quinolizin-1-yl)methyl)-N2-(3,5-dimethoxyphenyl)-5-methylpyrimidine-2,4-diamine] | > 4.52 | 5.82
COc1cc(Nc2ncc(F)c(NC[C@@H]3CCCN4CCCC[C@H]34)n2)cc(OC)c1 [Compound 11, 5-fluoro-N4-(((1S,9aR)-octahydro-1H-quinolizin-1-yl)methyl)-N2-(3,5-dimethoxyphenyl)pyrimidine-2,4-diamine] | > 4.52 | 5.97
Cc1ccc(Nc2ncc(C#N)c(NC[C@@H]3CCCN4CCCC[C@H]34)n2)cc1C#N [Compound 119, 4-(((1S,9aR)-octahydro-1H-quinolizin-1-yl)methylamino)-2-(3-cyano-4-methylphenylamino)pyrimidine-5-carbonitrile] | > 4.52 | 7.45
N#Cc1cccc(Nc2ncc(F)c(NC[C@@H]3CCCN4CCCC[C@H]34)n2)c1 [Compound 10, 3-(4-(((1S,9aR)-octahydro-1H-quinolizin-1-yl)methylamino)-5-fluoropyrimidin-2-ylamino)benzonitrile] | > 4.52 | 6.23
Fc1cc(C2CC2)c(-n2cnnn2)cc1Nc1nccc(NC[C@@H]2CCCN3CCCC[C@H]23)n1 [Compound 46, N2-(4-cyclopropyl-2-fluoro-5-(1H-tetrazol-1-yl)phenyl)-N4-(((1S,9aR)-octahydro-1H-quinolizin-1-yl)methyl)pyrimidine-2,4-diamine] | > 4.52 | 5.95
OCCOc1ccc(Nc2ncc(Cl)c(NC[C@@H]3CCCN4CCCC[C@H]34)n2)cc1-n1cnnn1 [Compound 139, 2-(4-((5-chloro-4-((((1S,9aR)-octahydro-2H-quinolizin-1-yl)methyl)amino)pyrimidin-2-yl)amino)-2-(1H-tetrazol-1-yl)phenoxy)ethan-1-ol] | > 4.52 | 7.76
COc1cc(Nc2ncc(OC)c(NC[C@@H]3CCCN4CCCC[C@H]34)n2)cc(-n2nnnc2C)c1 [Compound 78, N4-(((1S,9aR)-octahydro-1H-quinolizin-1-yl)methyl)-5-methoxy-N2-(3-methoxy-5-(5-methyl-1H-tetrazol-1-yl)phenyl)pyrimidine-2,4-diamine] | > 4.52 | 5.65
Cc1nnnn1-c1ccc(F)c(Nc2ncc(N(C)C)c(NC[C@@H]3CCCN4CCCC[C@H]34)n2)c1 [Compound 89, N2-(2-fluoro-5-(5-methyl-1H-tetrazol-1-yl)phenyl)-N4-(((1S,9aR)-octahydro-1H-quinolizin-1-yl)methyl)-N5,N5-dimethylpyrimidine-2,4,5-triamine] | > 4.52 | 4.84

The remaining lines, values ahead:

pIC50 [1] | pIC50 [2] | Structure (SMILES)
> 4.52 | 7.27 | Cc1nnnn1-c1cc(Nc2ncc(Cl)c(NC[C@@H]3CCCN4CCCC[C@H]34)n2)ccc1F [Compound 35, 5-chloro-N2-(4-fluoro-3-(5-methyl-1H-tetrazol-1-yl)phenyl)-N4-(((1S,9aR)-octahydro-1H-quinolizin-1-yl)methyl)pyrimidine-2,4-diamine]
> 4.52 | 4.97 | Cc1cc(C2CC2)c(-n2nnn(C)c2=O)cc1Nc1ncc(F)c(NC[C@@H]2CCCN3CCCC[C@H]23)n1 [Compound 15, 1-(5-(4-(((1S,9aR)-octahydro-1H-quinolizin-1-yl)methylamino)-5-fluoropyrimidin-2-ylamino)-2-cyclopropyl-4-methylphenyl)-4-methyl-1H-tetrazol-5(4H)-one]
> 4.52 | 5.42 | Cn1nnn(-c2cc(Nc3nccc(NC[C@@H]4CCCN5CCCC[C@H]45)n3)c(F)cc2C2CC2)c1=O [Compound 48, 1-(5-(4-(((1S,9aR)-octahydro-1H-quinolizin-1-yl)methylamino)pyrimidin-2-ylamino)-2-cyclopropyl-4-fluorophenyl)-4-methyl-1H-tetrazol-5(4H)-one]
> 4.52 | 5.91 | Cn1nnn(-c2cc(Nc3ncc(C#N)c(NC[C@@H]4CCCN5CCCC[C@H]45)n3)c(F)cc2OCC(O)CO)c1=O (stereo partly drawn) [Compound 132, 2-((4-(2,3-dihydroxypropoxy)-2-fluoro-5-(4-methyl-5-oxo-4,5-dihydro-1H-tetrazol-1-yl)phenyl)amino)-4-((((1S,9aR)-octahydro-2H-quinolizin-1-yl)methyl)amino)pyrimidine-5-carbonitrile]
> 4.52 | 7.29 | Cn1nnn(-c2cc(Nc3ncc(C#N)c(NC[C@@H]4CCCN5CCCC[C@H]45)n3)c(F)cc2C2CC2)c1=O [Compound 99, 4-(((1S,9aR)-octahydro-1H-quinolizin-1-yl)methylamino)-2-(4-cyclopropyl-2-fluoro-5-(4,5-dihydro-4-methyl-5-oxotetrazol-1-yl)phenylamino)pyrimidine-5-carbonitrile]
> 4.52 | 6.58 | C[C@H](O)COc1cc(F)c(Nc2ncc(F)c(NC[C@@H]3CCCN4CCCC[C@H]34)n2)cc1-n1nnn(C)c1=O [Compound 149, 1-(4-fluoro-5-((5-fluoro-4-((((1S,9aR)-octahydro-2H-quinolizin-1-yl)methyl)amino)pyrimidin-2-yl)amino)-2-((S)-2-hydroxypropoxy)phenyl)-4-methyl-1,4-dihydro-5H-tetrazol-5-one]
> 4.52 | 6.46 | N#Cc1cc(Nc2ncc(Cl)c(NC[C@@H]3CCCN4CCCC[C@H]34)n2)c(F)cc1C1CC1 [Compound 42, 5-(4-(((1S,9aR)-octahydro-1H-quinolizin-1-yl)methylamino)-5-chloropyrimidin-2-ylamino)-2-cyclopropyl-4-fluorobenzonitrile]
> 4.52 | 5.76 | CN(C)c1cnc(Nc2cc(C#N)c(C3CC3)cc2F)nc1NC[C@@H]1CCCN2CCCC[C@H]12 [Compound 95, 5-(4-(((1S,9aR)-octahydro-1H-quinolizin-1-yl)methylamino)-5-(dimethylamino)pyrimidin-2-ylamino)-2-cyclopropyl-4-fluorobenzonitrile]
> 4.52 | 8.03 | N#Cc1cc(Nc2ncc(C#N)c(NC[C@@H]3CCCN4CCCC[C@H]34)n2)ccc1C1CC1 [Compound 120, 4-(((1S,9aR)-octahydro-1H-quinolizin-1-yl)methylamino)-2-(3-cyano-4-cyclopropylphenylamino)pyrimidine-5-carbonitrile]
> 4.52 | 6.43 | Fc1cc(C2CC2)c(-n2cnnn2)cc1Nc1ncc(F)c(NC[C@@H]2CCCN3CCCC[C@H]23)n1 [Compound 2, N2-(4-cyclopropyl-2-fluoro-5-(1H-tetrazol-1-yl)phenyl)-5-fluoro-N4-(((1S,9aR)-octahydro-1H-quinolizin-1-yl)methyl)pyrimidine-2,4-diamine]
